Measured values reported in patent US20200199681A1, “MDA-7 CANCER THERAPIES AND METHODS OF DETECTING BIOMOLECULES” (VIRGINIA COMMONWEATLH UNIVERSITY, priority 2016, published 2020).

Experiments:
miR-221 = assay: level of miR-221 by real time PCR (RQ-PCR, taqman probe); type: cell-based, human; details: for miR-221 levels: low doses alone: ATO 1 μM, hydrogen peroxide 10 μM, pyocyanin 50 μM
cancer cells = details: cited from earlier work
Hela and DU-145 cells = details: cited from earlier work
U2OS cells = details: cited from earlier work
[1] = tested on: non-cancerous immortalized NOK cells; details: cited from earlier work

CC(=O)N[C@@H](CS)C(=O)O [NAC, N-acetyl cysteine]
effect on down regulation of miR-221 by ROS inducer with Ad.mda-7 (miR-221; MDA-MB-231 cells, pretreatment for 12 hours): abrogated down regulation of miR-221
cell death mediated by mda-7/IL-24 (cancer cells): inhibits

C[S+]([O-])c1ccc(-c2nc(-c3ccncc3)c(-c3ccc(F)cc3)[nH]2)cc1 (stereo not drawn) [SB203580]
Ad.mda-7-induced apoptosis (cancer cells): inhibits

OO [hydrogen peroxide]
miR-221 levels (miR-221; MDA-MB-231 cells): did not alter

Cn1c2cccc(=O)c-2nc2ccccc21 [pyocyanin]
miR-221 levels (miR-221; MDA-MB-231 cells): did not alter

Arsenic trioxide
miR-221 levels (miR-221; MDA-MB-231 cells): did not alter

B1: His-MDA-7: purified recombinant His tagged MDA-7/IL-24 protein (protein, UniProt Q13007 52-206, looked up)
Interleukin-24: QEFHFGPCQVKGVVPQKLWEAFWAVKDTMQAQDNITSARLLQQEVLQNVSDAESCYLVHTLLEFYLKTVFKNYHNRTVEVRTLKSFSTLANNFVLIVSQLQPSQENEMFSIRDSAHRRFLLFRRAFKQLDVEAALTKALGEVDILLTWMQKFYKL
modifications: His tag
notes: purified recombinant His tagged MDA-7/IL-24 protein
miR-221 expression (miR-221; A549 cells (lack cognate receptor pairs)): remained unchanged
miR-221 expression (miR-221; A549 cells overexpressing IL-20R2 or IL-22R1): sensitive to miR-221 down regulation
miR-221 expression (miR-221; DU-145 cells (both receptor types)): decreased

B2: M1: MDA-7/IL-24 deletion mutant, signal peptide deleted (protein, UniProt Q13007 52-206, looked up)
Interleukin-24: QEFHFGPCQVKGVVPQKLWEAFWAVKDTMQAQDNITSARLLQQEVLQNVSDAESCYLVHTLLEFYLKTVFKNYHNRTVEVRTLKSFSTLANNFVLIVSQLQPSQENEMFSIRDSAHRRFLLFRRAFKQLDVEAALTKALGEVDILLTWMQKFYKL
modifications: signal peptide deleted
notes: MDA-7/IL-24 deletion mutant, signal peptide deleted
tumor inhibitory effects of MDA-7/IL-24 (Hela and DU-145 cells): did not disrupt the tumor inhibitory effects

B3: Full length MDA-7/IL-24: full-length transcript with all 7 exons (protein, UniProt Q13007 1-206, looked up)
chain: MNFQQRLQSLWTLARPFCPPLLATASQMQMVVLPCLGFTLLLWSQVSGAQGQEFHFGPCQVKGVVPQKLWEAFWAVKDTMQAQDNITSARLLQQEVLQNVSDAESCYLVHTLLEFYLKTVFKNYHNRTVEVRTLKSFSTLANNFVLIVSQLQPSQENEMFSIRDSAHRRFLLFRRAFKQLDVEAALTKALGEVDILLTWMQKFYKL
modifications: full-length
notes: full-length transcript with all 7 exons
U2OS cell viability (U2OS cells): capable of reducing U2OS cell viability
viability of NOK cells [1]: no effect
